Assay results: patent US20210254056A1, “IDENTIFICATION AND TARGETED MODULATION OF GENE SIGNALING NETWORKS” (CAMP4 THERAPEUTICS CORPORATION, priority 2017, published 2021)

Test system: hepatocytes
Experiment: RNA-seq of hepatocytes treated with Phase III failure compounds
Conditions: hepatocytes
Description: RNA-seq was performed to determine the effects of the compounds on hepatocytes.
Significance was determined by the criteria of FPKM≥0.5, a log 2(fold-change)≥1, and a […].

SMILES: COc1cc(Nc2ncc(F)c(Nc3ccc4c(n3)N(COP(=O)(O)O)C(=O)C(C)(C)O4)n2)cc(OC)c1OC [fostamatinib]
- significant modulation of expression of disease genes (RNA-seq, q≤0.05, genes in the value or listed in the block): significantly (q≤0.05) modulate expression
- effect on disease gene expression (RNA-seq): effect on expression of too many disease genes
- RNA-seq results: A1BG expression (gene A1BG): 0.01
- RNA-seq results: AGTR1 expression (gene AGTR1): 0.25
- RNA-seq results: AGXT expression (gene AGXT): 0.45
- RNA-seq results: AHI1 expression (gene AHI1): 0.39
- RNA-seq results: AMPD3 expression (gene AMPD3): −0.90
- RNA-seq results: AMT expression (gene AMT): −0.28
- RNA-seq results: ANGPTL3 expression (gene ANGPTL3): 0.24
- RNA-seq results: ANKS4B expression (gene ANKS4B): 0.49
- RNA-seq results: ANKS6 expression (gene ANKS6): 0.03
- RNA-seq results: ANPEP expression (gene ANPEP): 0.49
- RNA-seq results: AOC2 expression (gene AOC2): 0.64
- RNA-seq results: APOA2 expression (gene APOA2): −0.31
- RNA-seq results: APOA5 expression (gene APOA5): 0.97
- RNA-seq results: APOB expression (gene APOB): 1.87
- RNA-seq results: COG5 expression (gene COG5): −0.12
- RNA-seq results: COG6 expression (gene COG6): 0.18
- RNA-seq results: COL1A1 expression (gene COL1A1): −0.09
- RNA-seq results: COX6A1 expression (gene COX6A1): 0.29
- RNA-seq results: CP expression (gene CP): −0.16
- RNA-seq results: CPS1 expression (gene CPS1): −0.56
- RNA-seq results: CPT1A expression (gene CPT1A): −0.03
- RNA-seq results: CPT2 expression (gene CPT2): 0.28
- RNA-seq results: CROT expression (gene CROT): 0.19
- RNA-seq results: CSPP1 expression (gene CSPP1): −0.09
- RNA-seq results: CTC1 expression (gene CTC1): 0.04
- RNA-seq results: CTDSP2 expression (gene CTDSP2): −0.06
- RNA-seq results: CTH expression (gene CTH): 0.15
- RNA-seq results: CTNS expression (gene CTNS): 0.1
- RNA-seq results: CTSF expression (gene CTSF): 0.07
- RNA-seq results: CTSK expression (gene CTSK): −0.13
- RNA-seq results: CYB5A expression (gene CYB5A): −0.01
- RNA-seq results: CYB5R3 expression (gene CYB5R3): 0.05
- RNA-seq results, CYP2B6 expression (gene CYP2B6): 0.55
- RNA-seq results: CYP2B6 expression (gene CYP2B6): −0.04
- RNA-seq results, CYP2C19 expression (gene CYP2C19): 0.61
- RNA-seq results: CYP2C19 expression (gene CYP2C19): −0.79
- RNA-seq results, CYP2D6 expression (gene CYP2D6): 0.31
- RNA-seq results: CYP2D6 expression (gene CYP2D6): −0.01
- RNA-seq results, CYP3A4 expression (gene CYP3A4): 3.59
- RNA-seq results: CYP3A4 expression (gene CYP3A4): 0.18
- RNA-seq results, CYP7B1 expression (gene CYP7B1): 0.59
- RNA-seq results: CYP7B1 expression (gene CYP7B1): −0.27
- RNA-seq results: CYP27A1 expression (gene CYP27A1): −0.03
- RNA-seq results, CYP39A1 expression (gene CYP39A1): 1.11
- RNA-seq results: CYP39A1 expression (gene CYP39A1): −0.23
- RNA-seq results: DAO expression (gene DAO): −0.06
- RNA-seq results: DBT expression (gene DBT): −0.01
- RNA-seq results: DCDC2 expression (gene DCDC2): −0.57
- RNA-seq results: DCXR expression (gene DCXR): 0.23
- RNA-seq results: FABP1 expression (gene FABP1): −0.33
- RNA-seq results: FADD expression (gene FADD): 0.17
- RNA-seq results: FAM111A expression (gene FAM111A): −0.14
- RNA-seq results: FAM111B expression (gene FAM111B): 1.04
- RNA-seq results: FAN1 expression (gene FAN1): 0.11
- RNA-seq results: FARS2 expression (gene FARS2): −0.7
- RNA-seq results: FASLG expression (gene FASLG): −0.31
- RNA-seq results: FGA expression (gene FGA): −0.24
- RNA-seq results: FGD1 expression (gene FGD1): 0.24
- RNA-seq results: FGFR2 expression (gene FGFR2): −1.3
- RNA-seq results: FIG4 expression (gene FIG4): −0.09
- RNA-seq results: FIS1 expression (gene FIS1): 0.19
- RNA-seq results: FTCD expression (gene FTCD): −0.37
- RNA-seq results: FTH1 expression (gene FTH1): 0.34
- RNA-seq results: FUCA1 expression (gene FUCA1): 0.04
- RNA-seq results: FXN expression (gene FXN): −0.11
- RNA-seq results: G6PC3 expression (gene G6PC3): 0.11
- RNA-seq results: G6PC expression (gene G6PC): −0.55
- RNA-seq results: G6PD expression (gene G6PD): 0.55
- RNA-seq results: GALK1 expression (gene GALK1): 0.19
- RNA-seq results: GALK2 expression (gene GALK2): 0.04
- RNA-seq results: GALT expression (gene GALT): −0.13
- RNA-seq results: GATA6 expression (gene GATA6): −0.12
- RNA-seq results: GATM expression (gene GATM): −0.13
- RNA-seq results: GBA expression (gene GBA): 0.02
- RNA-seq results: GBE1 expression (gene GBE1): −0.01
- RNA-seq results: GCH1 expression (gene GCH1): 0.04
- RNA-seq results: GCKR expression (gene GCKR): −0.15
- RNA-seq results: GCLC expression (gene GCLC): 0.18
- RNA-seq results: GOSH expression (gene GOSH): 0.18
- RNA-seq results: RRM2B (gene RRM2B): 0.45
- RNA-seq results: RSAD1 (gene RSAD1): 0.22
- RNA-seq results: SAMHD1 (gene SAMHD1): −0.22
- RNA-seq results: SC5D (gene SC5D): 0.22
- RNA-seq results: SCARB1 (gene SCARB1): −0.40
- RNA-seq results: SCN9A (gene SCN9A): −0.97
- RNA-seq results: SDCCAG8 (gene SDCCAG8): 0.11
- RNA-seq results: SEPN1 (gene SEPN1): −0.18
- RNA-seq results: SERAC1 (gene SERAC1): −0.05
- RNA-seq results: SERPINA1 (gene SERPINA1): 0.31
- RNA-seq results: SERPING1 (gene SERPING1): 0.27
- RNA-seq results: SERPINI1 (gene SERPINI1): 0.67
- RNA-seq results: SETBP1 (gene SETBP1): −0.46
- RNA-seq results: SFXN4 (gene SFXN4): 0.01
- RNA-seq results: SLC10A1 (gene SLC10A1): 0.97
- RNA-seq results: SLC10A3 (gene SLC10A3): −0.64
- RNA-seq results: SLC10A5 (gene SLC10A5): 1.23
- RNA-seq results: SLC10A7 (gene SLC10A7): −0.12
- RNA-seq results: SLC11A2 (gene SLC11A2): −0.54
- RNA-seq results: SLC19A1 (gene SLC19A1): −0.37
- RNA-seq results: SLC19A2 (gene SLC19A2): −0.01
- RNA-seq results: SLC19A3 (gene SLC19A3): 0.18
- RNA-seq results: SLC22A1 (gene SLC22A1): 0.16
- RNA-seq results: SLC22A5 (gene SLC22A5): −0.46
- RNA-seq results: SLC25A1 (gene SLC25A1): −0.04
- RNA-seq results: SLC25A10 (gene SLC25A10): 0.24
- RNA-seq results: SLC25A12 (gene SLC25A12): −0.27
- RNA-seq results: SLC25A13 (gene SLC25A13): 0.22
- RNA-seq results: SLC25A15 (gene SLC25A15): 1.61
- RNA-seq results: SLC25A19 (gene SLC25A19): 0.07
- RNA-seq results: SLC25A20 (gene SLC25A20): 0.62
- RNA-seq results: SLC25A29 (gene SLC25A29): −0.40
- RNA-seq results: SLC25A32 (gene SLC25A32): −0.06
